In patent publication US20090306214A1, “Use of Syk Tyrosine Kinase Inhibitors for the Treatment of Cell Proliferative Disorders” (priority 2006, published 2009):
Entries after “also recorded” stand apart in the source; their conditions may differ.

How the values were obtained:
human PBMC monocytes = assay: Effect on human PBMC monocytes; format: cell-based; details: FIGS. 11 and 12
Description: FIG. 12 illustrates the effect of AV 74S treatment on monocytes;
FIGS. 11 and 12 compare the effect of compounds of the invention—AV 61S and AV 74S—on human PBMC T and B cells (FIG. 11) versus human PBMC monocytes (FIG. 12). […] T cells contain ZAP-70, rather than Syk, but B lymphocytes do contain Syk. […] As such, the effect seen on the B and T cells is believed to be due to the activity on the B cells, not the T cells.

HL-60 cells [1] = assay: Viability of HL-60 cells after 3 days, XTT method; format: cell-based, human
Description: (§1) Secondly, the effect of compounds of the invention may be compared to the natural inhibitor of Syk, piceatannol.

E6.1 Jurkat cells = assay: E6.1 Jurkat (Syk-deficient) cell survival and viability; format: cell-based
Procedure: FIG. 18 illustrates, in comparison with cyclosporin-treated Jurkat cells, the viability of E6.1 Jurkat cells treated with differing concentrations of AV 61S or AV 74S after 24 hours; and
FIG. 19 illustrates, in comparison with cyclosporin-treated Jurkat cells, the viability of E6.1 Jurkat cells treated with differing concentrations of AV 61S or AV 74S after 48 hours.
(§2) The jurkat E6.1 line is a Syk-deficient line; in fact, AV 61S after 7 days has no effect on this cell line (i.e., neither apoptosis nor inhibition, see […]). […] The viability study has been performed after 24 and 48 hours of incubation, each time for 3 evaluations; within 1, 3 and 6 hours.

Jurkat cells = assay: Jurkat cell survival after a seven day period (Syk-containing); format: cell-based; details: 50 μg/ml; seven days; FIG. 4
Procedure: FIG. 4 illustrates the effect of AV 61S and AV 74S on Jurkat cell survival after a seven day period;
as §2

PHA-activated PBMCs = assay: Inhibition of PHA-activated PBMCs (lymphocyte proliferation, thymidine incorporation); format: cell-based, human; details: varying concentrations
[2] = Viability of HL-60 cells after 3 days, XTT method; format: cell-based, human; details: human, HL-60 cells
Description: as §1

HL-60 cells [3] = assay: Apoptosis of HL-60 cells after 2 days; format: cell-based, human
Description: as §1

Row | SMILES | effect on monocytes as compared to T and B cells (human PBMC monocytes) | viability of HL-60 cells (HL-60 cells [1]; 50 μg/ml + Pic 10 μM) | viability of HL-60 cells (HL-60 cells [1]; 50 μg/ml + Pic 30 μM) | viability of HL-60 cells (HL-60 cells [1]; 50 μg/ml, no piceatannol) | viability of HL-60 cells (HL-60 cells [1]; 100 μg/ml + Pic 10 μM) | viability of HL-60 cells (HL-60 cells [1]; 100 μg/ml + Pic 30 μM) | viability of HL-60 cells (HL-60 cells [1]; 100 μg/ml, no piceatannol) | viability of E6.1 Jurkat cells (E6.1 Jurkat cells; 24 and 48 hours of incubation, FIGS. 18 and 19) | effect on Syk-deficient Jurkat E6.1 cell survival (E6.1 Jurkat cells; after 7 days, FIG. 3) | killing of Syk-containing Jurkat cells (Jurkat cells) | inhibitory effect on PHA-activated PBMCs (PHA-activated PBMCs; DMSO carrier, FIG. 1) | inhibitory effect on PHA-activated PBMCs (PHA-activated PBMCs; PBS carrier, FIG. 2) | viability at 3 days, 10 μM ([2]; Pic 10 μM alone) | viability at 3 days, 30 μM ([2]; Pic 30 μM alone) | Apoptosis of HL-60 cells (HL-60 cells [3]; Pic. 10 μM alone) | Apoptosis of HL-60 cells (HL-60 cells [3]; Pic. 30 μM alone)
1 | CC(CO)OCC(C)OCC(C)OCC(C)OCC(C)OCC(C)OCC(C)OC[C@H](Cc1ccccc1)NC(=O)CCc1ccc(O)cc1 (stereo partly shown) [AV 61S] | more profound on monocytes | 97 % of control | 83 % of control | 81 % of control | 59 % of control | 23 % of control | 36 % of control | do not kill them | no effect; also recorded: lack of effect | ~100% | inhibitory effect | lesser inhibitory effect |  |  |  | 
2 | Oc1cc(O)cc(/C=C/c2ccc(O)c(O)c2)c1 [piceatannol, reference compound] |  |  |  |  |  |  |  |  |  |  |  |  | 89% | 79% | 20% | 33%
